Activity calls are given as the source filed them. How the calls were made is not given here.
Test system: rodent carcinogenicity bioassays, tumor incidence
Experiment: CCRIS carcinogenicity studies
Procedure, shortened: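 Archive of carcinogenicity, mutagenicity, tumor promotion and tumor inhibition results drawn from journals, NCI reports and other sources, expert-reviewed; covers 1985-2011 and is no longer updated.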

## NC(=O)N(CCc1ccccc1)N=O
Species: RAT, Strain/Sex: F344/FEMALE, Route: GAVAGE, Dose: 0, 20 MG/ML (TOTAL DOSE 0; 0.9 MMOL) IN 2 ML ETHYL ACETATE AND CORN OIL (1:2) 2/WK FOR 22 WK (STUDY DURATION: LIFETIME), Dose: 0, 20 MG/ML (TOTAL DOSE 0; 0.9 MMOL) IN 2 ML ETHYL ACETATE AND CORN OIL (1:2) 2/WK FOR 22 WK (STUDY DURATION: LIFETIME), Tumor Site: Type of Lesion: LIVER: TUMOR, FORESTOMACH: SQUAMOUS CELL CARCINOMA
  carcinogen call: active; positive
Species: RAT, Strain/Sex: F344/FEMALE, Route: GAVAGE, Dose: 0, 20 MG/ML IN 0.2 ML ETHYL ACETATE AND CORN OIL 2/WK FOR 22 WK (STUDY DURATION: LIFESPAN), Tumor Site: Type of Lesion: FORESTOMACH: TUMOR, LIVER: TUMOR
  carcinogen call: active; positive
Species: RAT, Strain/Sex: F344/MALE, Route: GAVAGE, Dose: 0, 20 MG/ML (TOTAL DOSE 0; 0.9 MMOL) IN 2 ML ETHYL ACETATE AND CORN OIL (1:2) 2/WK FOR 22 WK (STUDY DURATION: LIFETIME), Dose: 0, 20 MG/ML (TOTAL DOSE 0; 0.9 MMOL) IN 2 ML ETHYL ACETATE AND CORN OIL (1:2) 2/WK FOR 22 WK (STUDY DURATION: LIFETIME), Tumor Site: Type of Lesion: LIVER: TUMOR, FORESTOMACH: SQUAMOUS CELL CARCINOMA
  carcinogen call: active; positive
Species: RAT, Strain/Sex: F344/MALE, Route: GAVAGE, Dose: 0, 20 MG/ML IN 0.2 ML ETHYL ACETATE AND CORN OIL 2/WK FOR 22 WK (STUDY DURATION: LIFESPAN), Tumor Site: Type of Lesion: FORESTOMACH: TUMOR, LIVER: TUMOR, DUODENUM: TUMOR, Tumor Site: Type of Lesion: FORESTOMACH: TUMOR, LIVER: TUMOR, DUODENUM: TUMOR
  carcinogen call: active; positive

## O=CC=O
Species: MOUSE, Strain/Sex: CD-1/FEMALE, Route: DERMAL, Dose: 0, 50 UMOL/O.1 ML DMSO 2/WK FOR 5 WK FOLLOWED 1 WK LATER BY 0.1 ML ACETONE 2/WK FOR 47 WK (STUDY DURATION: 52 WK)
  carcinogen call: inactive; negative

## Cc1cccc2c(C)c3c(ccc4ccccc43)c(C)c12
Species: MOUSE, Strain/Sex: C57BL/MALE,FEMALE, Route: DERMAL, Tumor Site: Type of Lesion: INTEGUMENTARY SYSTEM (SKIN): PAPILLOMA, EPITHELIOMA, SARCOMA
  carcinogen call: active; positive
Species: MOUSE, Strain/Sex: DBA/MALE,FEMALE, Route: DERMAL, Tumor Site: Type of Lesion: INTEGUMENTARY SYSTEM (SKIN): PAPILLOMA, EPITHELIOMA, SARCOMA
  carcinogen call: active; positive
Species: MOUSE, Strain/Sex: DBF1/MALE,FEMALE, Route: DERMAL, Tumor Site: Type of Lesion: INTEGUMENTARY SYSTEM (SKIN): PAPILLOMA, EPITHELIOMA, SARCOMA
  carcinogen call: active; positive
Species: RAT, Strain/Sex: LONG-EVANS/FEMALE, Route: INTRAVENOUS, Dose: 35 MG/KG, 0.5% IN DMSO DILUTED WITH COTTONSEED OIL-WATER EMULSION, 1/2 WK OR 1/10 D FOR 3-5 DOSES, Tumor Site: Type of Lesion: HEMATOPOIETIC SYSTEM (LEUKEMIA)
  carcinogen call: active; positive
Species: RAT, Strain/Sex: LONG-EVANS/MALE, Route: INTRAMUSCULAR, Dose: 2.5 MG IN 0.5 ML SESAME OIL ONCE, Tumor Site: Type of Lesion: INJECTION SITE: SARCOMA
  carcinogen call: active; positive
Species: RAT, Strain/Sex: LONG-EVANS/MALE, Route: INTRAVENOUS, Dose: 35 MG/KG, 0.5% IN DMSO DILUTED WITH COTTONSEED OIL-WATER EMULSION, 1/2 WK FOR 4 DOSES, Tumor Site: Type of Lesion: HEMATOPOIETIC SYSTEM (LEUKEMIA)
  carcinogen call: active; positive

## CC/C(C)=N\O
Species: MOUSE, Strain/Sex: CD-1/FEMALE, Route: INHALATION, Dose: 0, 15, 75, 374 PPM 6 HR/D 5 D/WK FOR 26 MO (STUDY DURATION: 26 MO), Dose: 0, 15, 75, 374 PPM 6 HR/D 5 D/WK FOR 26 MO (STUDY DURATION: 26 MO)
  carcinogen call: inactive; negative
Species: MOUSE, Strain/Sex: CD-1/MALE, Route: INHALATION, Dose: 0, 15, 75, 374 PPM 6 HR/D 5 D/WK FOR 26 MO (STUDY DURATION: 26 MO), Dose: 0, 15, 75, 374 PPM 6 HR/D 5 D/WK FOR 26 MO (STUDY DURATION: 26 MO), Tumor Site: Type of Lesion: LIVER: CARCINOMA, ADENOMA OR CARCINOMA
  carcinogen call: active; positive
Species: RAT, Strain/Sex: F344/FEMALE, Route: INHALATION, Dose: 0, 15, 75, 374 PPM 6 HR/D 5 D/WK FOR 26 MO (STUDY DURATION: 26 MO), Dose: 0, 15, 75, 374 PPM 6 HR/D 5 D/WK FOR 26 MO (STUDY DURATION: 26 MO)
  carcinogen call: inactive; negative
Species: RAT, Strain/Sex: F344/MALE, Route: INHALATION, Dose: 0, 15, 75, 374 PPM 6 HR/D 5 D/WK FOR 26 MO (STUDY DURATION: 26 MO), Dose: 0, 15, 75, 374 PPM 6 HR/D 5 D/WK FOR 26 MO (STUDY DURATION: 26 MO), Tumor Site: Type of Lesion: LIVER: ADENOMA, CARCINOMA, ADENOMA OR CARCINOMA
  carcinogen call: active; positive

## O=[N+]([O-])c1ccc2ccc3cccc4c5ccccc5c1c2c34
Species: MOUSE, Strain/Sex: B6C3F1/MALE, Route: INTRAPERITONEAL, Dose: 0, 400 NMOL IN 35 µL DMSO ON DAYS 1 (1/7 TOTAL DOSE), 8 (2/7 TOTAL DOSE), AND 15 (4/7 TOTAL DOSE) AFTER BIRTH (STUDY DUR
  carcinogen call: inactive; negative

## CCOP(=S)(OCC)Oc1cc(C)nc(C(C)C)n1
Species: MOUSE, Strain/Sex: B6C3F1/FEMALE, Route: ORAL, Dose: 0, 100, 200 PPM IN DIET, Dose: 0, 100, 200 PPM IN DIET
  carcinogen call: inactive; negative
Species: MOUSE, Strain/Sex: B6C3F1/MALE, Route: ORAL, Dose: 0, 100, 200 PPM IN DIET, Dose: 0, 100, 200 PPM IN DIET
  carcinogen call: inactive; negative
Species: RAT, Strain/Sex: F344/FEMALE, Route: ORAL, Dose: 0, 400, 800 PPM IN DIET, Dose: 0, 400, 800 PPM IN DIET
  carcinogen call: inactive; negative
Species: RAT, Strain/Sex: F344/MALE, Route: ORAL, Dose: 0, 400, 800 PPM IN DIET, Dose: 0, 400, 800 PPM IN DIET
  carcinogen call: inactive; negative

## COc1cc2c(c3oc(=O)c4c(c13)CCOC4=O)[C@@H]1C=CO[C@@H]1O2
Species: HUMAN, Route: ORAL, Tumor Site: Type of Lesion: LIVER
  carcinogen call: active; positive
Species: RAT, Route: ORAL, Tumor Site: Type of Lesion: KIDNEY
  carcinogen call: active; positive

## CC(=O)N(O[C@@H]1O[C@H](C(=O)O)[C@@H](O)[C@H](O)[C@H]1O)c1ccc2c(c1)Cc1ccccc1-2
Species: RAT, Strain/Sex: F344/MALE, Route: INJECTION, Dose: 0, 1 UMOL IN 0.5 ML OF SOLUTION CONTAINING 0.4 ML PHOSPHATE BUFFERED SALINE/ GENTAMYCIN (PH 7) AND 0.1 ML DMSO INJECTED
  carcinogen call: inactive; negative
Species: RAT, Strain/Sex: F344/MALE, Route: INJECTION, Dose: 0, 1 UMOL IN 0.5 ML OF SOLUTION CONTAINING 0.4 ML PHOSPHATE BUFFERED SALINE/ GENTAMYCIN (PH 8) AND 0.1 ML DMSO INJECTED
  carcinogen call: inactive; negative

## COc1ccc(C(=O)Nc2c(Cl)cncc2Cl)cc1OC1CCCC1
Species: RAT, Strain/Sex: SPRAGUE-DAWLEY/FEMALE, Route: INHALATION, Dose: 0, 0.125, 0.5, 1.0 MG/KG BW/D 1 HR/D IN A DRY-POWDER FORMULATION WITH LACTOSE VEHICLE USING A NOSE-ONLY AEROSOL EXPOSURE, Dose: 0, 0.125, 0.5, 1.0 MG/KG BW/D 1 HR/D IN A DRY-POWDER FORMULATION WITH LACTOSE VEHICLE USING A NOSE-ONLY AEROSOL EXPOSURE, Tumor Site: Type of Lesion: NASAL OLFACTORY REGION: TUMORS
  carcinogen call: active; positive
Species: RAT, Strain/Sex: SPRAGUE-DAWLEY/MALE, Route: INHALATION, Dose: 0, 0.125, 0.5, 1.0 MG/KG BW/D 1 HR/D IN A DRY-POWDER FORMULATION WITH LACTOSE VEHICLE USING A NOSE-ONLY AEROSOL EXPOSURE, Dose: 0, 0.125, 0.5, 1.0 MG/KG BW/D 1 HR/D IN A DRY-POWDER FORMULATION WITH LACTOSE VEHICLE USING A NOSE-ONLY AEROSOL EXPOSURE, Tumor Site: Type of Lesion: NASAL OLFACTORY REGION: TUMORS
  carcinogen call: active; positive

## Cc1ncc([N+](=O)[O-])n1CCO
Species: MOUSE, Route: ORAL, Tumor Site: Type of Lesion: LUNG, LYMPHATIC SYSTEM: LYMPHOMA (NOS)
  carcinogen call: active; positive
Species: RAT, Route: ORAL, Tumor Site: Type of Lesion: MAMMARY GLAND
  carcinogen call: active; positive

## CCC[CH2][Sn]([CH2]CCC)([O]C(C)=O)[O]C(C)=O
Species: MOUSE, Strain/Sex: B6C3F1/FEMALE, Route: ORAL, Dose: 0, 76, 152 PPM IN DIET, TWA, Dose: 0, 76, 152 PPM IN DIET, TWA
  carcinogen call: inactive; negative
Species: MOUSE, Strain/Sex: B6C3F1/MALE, Route: ORAL, Dose: 0, 76, 152 PPM IN DIET, TWA, Dose: 0, 76, 152 PPM IN DIET, TWA
  carcinogen call: inactive; negative
Species: RAT, Strain/Sex: F344/MALE, Route: ORAL, Dose: 0, 66.5, 133 PPM IN DIET, TWA, Dose: 0, 66.5, 133 PPM IN DIET, TWA
  carcinogen call: inactive; negative
